Test results as given in article PMC5136371, “Acetylcholinesterase and Cytotoxic Activity of Chemical Constituents of Clutia lanceolata Leaves and its Molecular Docking Study” (Natural Products and Bioprospecting, 2016).
Where two headings read alike, the source gives them in different places.

Experiments:
human recombinant AChE = molecular target: T1, human recombinant AChE (Homo sapiens, UniProt P22303); experiment: biochemical
T1 construct: purchased Sigma-Aldrich
Protocol: AChE stock solution was prepared by dissolving human recombinant AChE (EC: 3.1.1.7) lyophilized powder (Sigma-Aldrich) in 0.1 M phosphate buffer (pH = 8.0) containing Triton X-100 (0.1 %). […] Increasing concentrations of the tested inhibitor were added to the assay solution and pre-incubated for 5 min at 37 °C with the enzyme followed by the addition of the substrate. Initial rate assays were performed at 37 °C using a Jasco V-530 double beam Spectrophotometer. The absorbance value at 412 nm was recorded for 5 min and enzyme activity was calculated from the slope of the obtained linear trend. Assays were carried out with a blank containing all components except AChE to account for the non-enzymatic reaction. The reaction rates were compared and the percent inhibition due to the presence of tested inhibitors was calculated. […] Tacrine was used as a standard inhibitor.

[1] = test system: brine shrimp nauplii (Artemia salina); experiment: In vivo cytotoxicity, brine shrimp lethality bioassay; settings: 24 h incubation, 10-80 µg/mL, triplicate
Protocol: The in vivo cytotoxicity of compounds (1–4) isolated from the leaves of C. lanceolata was evaluated to brine shrimp nauplii using vincristine sulfate as standard (Fig. S1 †ESI). It is one of the most convenient methods to determine the cytotoxicity of any compound.
Brine shrimp lethality bioassay is commonly used in the bioassay for the bioactive compounds [44, 45]. The in vivo cytotoxicity assay was performed on brine shrimp nauplii (Artemia salina) in accordance with the Mayer method. The egg of brine shrimp were hatched in a tank filled with artificially prepared sea water (brine, 3.8 % NaCl) exposed to incandescent light. Air was supplied at the bottom of the tank with the help of air supplier fitted with tube to keep the shrimps in uniform motion. The assay was performed 24 h after hatching and no food supplement was given during the hatching and experimental periods. A test sample (5.0 mg) was dissolved in 1 mL DMSO to obtain stock solution of 5 mg/mL. Different concentrations of test samples were obtained from stock solution and placed in separate vials, and the volume of each vial was made up to 5 mL with brine to obtain the desired final concentrations (10, 20, 40, 60 and 80 µg/mL). The negative control was prepared in the same manner without the samples. Vincristine sulphate was used as a standard anti-cancer drug. Thirty brine shrimp nauplii were then placed in each vial. After 24 h of incubation, the vials were observed using a magnifying glass, and the number of survivors in each vial were counted and noted. The LD50 values were calculated using the plot of percentage of mortality and logarithm of concentration. All tests were performed in triplicate and expressed as mean.

[2] = Solubility and air stability of the isolated crystals; type: physicochemical; settings: for solubility in organic solvents: all common organic solvents; for stability in air: once isolated

T1 sequence (P22303 32-614): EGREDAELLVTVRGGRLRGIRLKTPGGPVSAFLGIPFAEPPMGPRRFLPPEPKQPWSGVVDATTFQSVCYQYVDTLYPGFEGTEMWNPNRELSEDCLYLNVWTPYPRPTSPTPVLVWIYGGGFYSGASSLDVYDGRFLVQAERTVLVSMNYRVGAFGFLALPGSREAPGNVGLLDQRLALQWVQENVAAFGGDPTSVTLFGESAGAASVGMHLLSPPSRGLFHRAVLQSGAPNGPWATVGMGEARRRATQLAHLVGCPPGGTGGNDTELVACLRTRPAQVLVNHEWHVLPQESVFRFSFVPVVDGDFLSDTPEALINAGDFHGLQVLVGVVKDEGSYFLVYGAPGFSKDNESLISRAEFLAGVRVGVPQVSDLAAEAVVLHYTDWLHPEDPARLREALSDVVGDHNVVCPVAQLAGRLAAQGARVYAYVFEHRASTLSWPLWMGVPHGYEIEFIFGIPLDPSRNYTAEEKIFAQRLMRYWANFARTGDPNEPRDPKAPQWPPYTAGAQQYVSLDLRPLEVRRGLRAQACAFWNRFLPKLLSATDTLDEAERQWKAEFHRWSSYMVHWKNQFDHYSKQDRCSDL

## Cc1c(C(=O)O)ccc(O)c1O [Compound 1, 3,4-dihydroxy-2-methylbenzoic acid]
Human recombinant AChE; human recombinant AChE, pH 8.0, 37 °C, substrate acetylthiocholine iodide 550 µM, triplicate, read-out: IC50 ± SEM for hAChE inhibition
  IC50: 23.7 ± 0.02 µM
[1]
  LD50 value: 23.40 ± 0.02 µg/mL
[1]; listed as compound 1
  LD50 value: 23.40 µg/mL

## Oc1ccc2ccccc2c1-c1c(O)ccc2ccccc12 [Compound 2, 2,2′-dihydroxy-1,1′-binaphthyl]
Human recombinant AChE
  IC50: 21.9 ± 0.05 µM
[1]
  LD50 value: 17.78 ± 0.05 µg/mL
[1]; listed as compound 2
  LD50 value: 17.78 µg/mL
[2]
  solubility in organic solvents: soluble in all common organic solvents
  stability in air: air-stable
  solubility in water: insoluble in water

## Cc1cc(O)c2c(c1)C(=O)c1cc(O)cc(O)c1C2=O [Compound 3, 1,3,8-trihydroxy-6-methylanthracene-9,10-dione]
Human recombinant AChE
  IC50: 14.2 ± 0.06 µM
[1]
  LD50 value: 13.80 ± 0.03 µg/mL
[1]; listed as compound 3
  LD50 value: 13.80 µg/mL

## COc1cc(/C=C/C(=O)/C=C(O)/C=C/c2ccc(O)c(OC)c2)ccc1O [Compound 4, 5-hydroxy-1,7-bis(4-hydroxy-3-methoxyphenyl)hepta-1,4,6-trien-3-one]
[1]
  LD50 value: 11.66 ± 0.04 µg/mL
[1]; listed as compound 4
  LD50 value: 11.66 µg/mL
[2]
  solubility in organic solvents: soluble in all common organic solvents
  stability in air: air-stable
  solubility in water: insoluble in water

## CC[C@]1(O)C[C@H]2CN(CCc3c([nH]c4ccccc34)[C@@](C(=O)OC)(c3cc4c(cc3OC)N(C=O)[C@H]3[C@@](O)(C(=O)OC)[C@H](OC(C)=O)[C@]5(CC)C=CCN6CC[C@]43[C@@H]65)C2)C1 [Vincristine sulphate, reference compound]
[1]
  LD50 value: 8.84 ± 0.01 µg/mL
[1]; listed as vincristine sulfate
  LD50 value: 8.84 µg/mL
